Assay results taken from US6875451B2, “Compositions and methods for the treatment of primary and metastatic neoplastic diseases using arsenic compounds” (PolaRx Biopharmaceuticals Inc., priority 1997, dated 2005).

Tests used:
Type in all cases: cell-based
[1] = test system: NCI/ADR-RIS; assay: SRB growth assay, 6 days exposure, breast cancer
Method: (§1) Arsenic trioxide (1 mg/ml, 10 mg/ampoule, manufactured by Taylor Pharmaceuticals, Decatur, Ill.) was tested at five concentrations each at 10-fold dilutions, i.e., 10^−5, 10^−6, 10^−7, 10^−8 and 10^−9 μg/ml.
(§2) The in vitro tests were performed by incubating the test cells in the presence of the indicated concentration of arsenic trioxide under standard culture conditions for a designated period of time, which is followed by a sulforhodamine B (SRB) protein assay to estimate cell viability or growth. The cell lines are organized into subpanels according to the origin of the cell lines, e.g., leukemia, breast cancer, etc. A description of the cell lines and method of testing is described in Monk et al. (1997, Anticancer Drug Des. 12:533-41) and Weinstein et al., (1997, Science 275:343-9), which are incorporated herein in their entirety.
(§3) The measurement of an effect is expressed in Percentage Growth (PG). The measured effect of the compound on a cell line is calculated according to one or the other of the following two expressions: If (Mean ODtest−Mean ODzero)≧0. then PG=100×(Mean ODtest−Mean ODzero)/(Mean ODctrl−Mean ODzero) If (Mean ODtest−Mean ODzero)<0. then PG=100×(Mean ODtest−Mean ODzero)/(Mean ODzero where: • Mean ODzero=the average of optical density measurements of SRB-derived color just before exposure of cells to the test compounds; • Mean ODtest=the average of optical density measurements of SRB-derived color after exposure of cells to the test compound for a designated period of time; and • Mean ODctrl=the average of optical density measurements of SRB-derived color after with no exposure of cells to the test compound for a designated period of time
(§4) The first two columns describe the subpanel (e.g., leukemia) and cell line (e.g., CCRF-CEM) involved. The next two columns list the Mean ODzero and Mean ODctrl; the next five columns list the Mean ODtest for each of five different concentrations. Each concentration is expressed as the log10 (molar or μg/ml). The next five columns list the calculated PGs for each concentration. The response parameters GI50, TGI and LC50 are interpolated values representing the concentrations at which the PG is +50, 0, and −50, respectively. Sometimes these response parameters cannot be obtained by interpolation. If, for instance, all of the PGs in a given row exceed +50, then none of the three parameters can be obtained by interpolation. In such a case, the value given for each response parameter is the highest concentration tested and is preceded by a “>” sign. This practice is extended similarly to the other possible situations where a response parameter cannot be obtained by interpolation.
(§5) In the first set, the cells from 56 different cancer cell lines were exposed to five concentrations of arsenic trioxide continuously for two days prior to performing the SRB assay. In the second set, the cells from 50 different cell lines (a subset of the first 56 cell lines, plus the renal cancer cell line 786-0) were exposed continuously for six days prior to the SRB assay.

[2] = test system: BR-549; assay: SRB growth assay, 6 days exposure, breast cancer; settings: BT-549, 6 days
Method: as §1, §2, §3, §4, §5

[3] = test system: MCF7; assay: SRB growth assay, 6 days exposure, breast cancer; settings: MCF7, 6 days
Method: as §1, §2, §3, §4, §5

[4] = test system: T-47D; assay: SRB growth assay, 6 days exposure, breast cancer
Method: as §1, §2, §3, §4, §5

[5] = test system: HS 578T; assay: SRB growth assay, 6 days exposure, breast cancer
Method: as §1, §2, §3, §4, §5

[6] = test system: MDA-MB-435; assay: SRB growth assay, 6 days exposure, breast cancer; settings: MDA-MB-435, 6 days
Method: as §1, §2, §3, §4, §5

[7] = test system: OVCAR-8; assay: SRB growth assay, 2 days exposure, ovarian cancer
Method: as §1, §2, §3, §4, §5

[8] = test system: OVCAR-3; assay: SRB growth assay, 2 days exposure, ovarian cancer
Method: as §1, §2, §3, §4, §5

[9] = test system: OVCAR-5; assay: SRB growth assay, 2 days exposure, ovarian cancer
Method: as §1, §2, §3, §4, §5

[10] = test system: IGROV1; assay: SRB growth assay, 2 days exposure, ovarian cancer
Method: as §1, §2, §3, §4, §5

[11] = read-out: LC50 (the source's name)

arsenic trioxide was tested. Which TGI [1] did it give?
Its TGI is greater than 1.26E−05.

What about the “Mean Optical Densities” value ([1]; Log 10 Concentration −4.9) of the same substance?
The value was 0.072.

And the “Percent Growth” value ([1]; Log 10 Concentration −4.9)?
Its value is 1%.

And the “Mean Optical Densities” value ([1]; Log 10 Concentration −5.9)?
Its value is 1.319.

What about the “Percent Growth” value ([1]; Log 10 Concentration −5.9) of the same substance?
The value was 56%.

What about the “Mean Optical Densities” value ([1]; Log 10 Concentration −6.9) of the same substance?
The value was 1.951.

What about the “Percent Growth” value ([1]; Log 10 Concentration −6.9) of the same substance?
Its value is 84%.

What about the “Mean Optical Densities” value ([1]; Log 10 Concentration −7.9) of the same substance?
Its value is 2.253.

And the “Percent Growth” value ([1]; Log 10 Concentration −7.9)?
The value was 98%.

What about the “Mean Optical Densities” value ([1]; Log 10 Concentration −8.9) of the same substance?
Its value is 2.075.

And the “Percent Growth” value ([1]; Log 10 Concentration −8.9)?
Its value is 90%.

What about the CC50 [1, 11] of the same substance?
The CC50 was greater than 12.6 µM.

What about the GI50 [2] of the same substance?
The GI50 was 2.22 µM.

What about the TGI [2] of the same substance?
The TGI was 4.24E−06.

And the “Mean Optical Densities” value ([2]; Log 10 Concentration −4.9)?
The value was 0.018.

And the “Percent Growth” value ([2]; Log 10 Concentration −4.9)?
Its value is −84%.

What about the “Mean Optical Densities” value ([2]; Log 10 Concentration −5.9) of the same substance?
The value was 1.697.

And the “Percent Growth” value ([2]; Log 10 Concentration −5.9)?
The value was 94%.

What about the “Mean Optical Densities” value ([2]; Log 10 Concentration −6.9) of the same substance?
The value was 1.963.

What about the “Percent Growth” value ([2]; Log 10 Concentration −6.9) of the same substance?
The value was 110%.

And the “Mean Optical Densities” value ([2]; Log 10 Concentration −7.9)?
The value was 1.940.

What about the “Percent Growth” value ([2]; Log 10 Concentration −7.9) of the same substance?
Its value is 108%.

And the “Mean Optical Densities” value ([2]; Log 10 Concentration −8.9)?
Its value is 1.876.

What about the “Percent Growth” value ([2]; Log 10 Concentration −8.9) of the same substance?
The value was 105%.

What about the CC50 [2, 11] of the same substance?
Its CC50 is 8.08 µM.

And the TGI [3]?
The TGI was 3.66E−06.

And the “Mean Optical Densities” value ([3]; Log 10 Concentration −4.9)?
The value was 0.008.

What about the “Percent Growth” value ([3]; Log 10 Concentration −4.9) of the same substance?
Its value is −73%.

What about the “Mean Optical Densities” value ([3]; Log 10 Concentration −5.9) of the same substance?
Its value is 1.683.

And the “Percent Growth” value ([3]; Log 10 Concentration −5.9)?
Its value is 63%.

And the “Mean Optical Densities” value ([3]; Log 10 Concentration −6.9)?
Its value is 2.603.

And the “Percent Growth” value ([3]; Log 10 Concentration −6.9)?
Its value is 98%.

And the “Mean Optical Densities” value ([3]; Log 10 Concentration −7.9)?
The value was 2.611.

And the “Percent Growth” value ([3]; Log 10 Concentration −7.9)?
Its value is 99%.

What about the “Mean Optical Densities” value ([3]; Log 10 Concentration −8.9) of the same substance?
Its value is 2.647.

And the “Percent Growth” value ([3]; Log 10 Concentration −8.9)?
Its value is 100%.

And the TGI [4]?
Its TGI is 2.90E−06.

What about the “Mean Optical Densities” value ([4]; Log 10 Concentration −4.9) of the same substance?
Its value is 0.027.

What about the “Percent Growth” value ([4]; Log 10 Concentration −4.9) of the same substance?
Its value is −73%.

And the “Mean Optical Densities” value ([4]; Log 10 Concentration −5.9)?
The value was 0.398.

And the “Percent Growth” value ([4]; Log 10 Concentration −5.9)?
The value was 41%.

And the “Mean Optical Densities” value ([4]; Log 10 Concentration −6.9)?
The value was 0.539.

What about the “Percent Growth” value ([4]; Log 10 Concentration −6.9) of the same substance?
The value was 61%.

What about the “Mean Optical Densities” value ([4]; Log 10 Concentration −7.9) of the same substance?
The value was 0.336.

What about the “Percent Growth” value ([4]; Log 10 Concentration −7.9) of the same substance?
Its value is 33%.

And the “Mean Optical Densities” value ([4]; Log 10 Concentration −8.9)?
The value was 0.883.

And the “Percent Growth” value ([4]; Log 10 Concentration −8.9)?
The value was 108%.

And the TGI [5]?
The TGI was 4.12E−06.

And the “Mean Optical Densities” value ([5]; Log 10 Concentration −4.9)?
The value was 0.010.

What about the “Percent Growth” value ([5]; Log 10 Concentration −4.9) of the same substance?
Its value is −91%.

What about the “Mean Optical Densities” value ([5]; Log 10 Concentration −5.9) of the same substance?
The value was 0.706.

And the “Percent Growth” value ([5]; Log 10 Concentration −5.9)?
Its value is 96%.

What about the “Mean Optical Densities” value ([5]; Log 10 Concentration −6.9) of the same substance?
Its value is 0.890.

And the “Percent Growth” value ([5]; Log 10 Concentration −6.9)?
Its value is 126%.

And the “Mean Optical Densities” value ([5]; Log 10 Concentration −7.9)?
Its value is 0.587.

And the “Percent Growth” value ([5]; Log 10 Concentration −7.9)?
The value was 77%.

And the “Mean Optical Densities” value ([5]; Log 10 Concentration −8.9)?
The value was 0.777.

And the “Percent Growth” value ([5]; Log 10 Concentration −8.9)?
The value was 108%.

And the TGI [6]?
Its TGI is 3.10E−06.

What about the “Mean Optical Densities” value ([6]; Log 10 Concentration −4.9) of the same substance?
The value was 0.021.

And the “Percent Growth” value ([6]; Log 10 Concentration −4.9)?
The value was −62%.

And the “Mean Optical Densities” value ([6]; Log 10 Concentration −5.9)?
Its value is 0.631.

What about the “Percent Growth” value ([6]; Log 10 Concentration −5.9) of the same substance?
Its value is 40%.

And the “Mean Optical Densities” value ([6]; Log 10 Concentration −6.9)?
Its value is 0.865.

What about the “Percent Growth” value ([6]; Log 10 Concentration −6.9) of the same substance?
The value was 56%.

What about the “Mean Optical Densities” value ([6]; Log 10 Concentration −7.9) of the same substance?
The value was 1.470.

And the “Percent Growth” value ([6]; Log 10 Concentration −7.9)?
The value was 98%.

What about the “Mean Optical Densities” value ([6]; Log 10 Concentration −8.9) of the same substance?
Its value is 1.276.

And the “Percent Growth” value ([6]; Log 10 Concentration −8.9)?
Its value is 85%.

And the TGI [7]?
The TGI was greater than 0.0126 ng/mL.

What about the “Percent Growth” value ([7]; log10 conc −4.9) of the same substance?
The value was 28%.

What about the “Percent Growth” value ([7]; log10 conc −5.9) of the same substance?
Its value is 80%.

What about the “Percent Growth” value ([7]; log10 conc −6.9) of the same substance?
The value was 84%.

What about the “Percent Growth” value ([7]; log10 conc −7.9) of the same substance?
The value was 92%.

What about the “Percent Growth” value ([7]; log10 conc −8.9) of the same substance?
Its value is 92%.

What about the TGI [8] of the same substance?
The TGI was greater than 0.0126 ng/mL.

And the “Percent Growth” value ([8]; log10 conc −4.9)?
The value was 12%.

And the “Percent Growth” value ([8]; log10 conc −5.9)?
The value was 90%.

What about the “Percent Growth” value ([8]; log10 conc −6.9) of the same substance?
Its value is 97%.

And the “Percent Growth” value ([8]; log10 conc −7.9)?
The value was 99%.

And the “Percent Growth” value ([8]; log10 conc −8.9)?
Its value is 101%.

And the TGI [9]?
Its TGI is greater than 0.0126 ng/mL.

What about the “Percent Growth” value ([9]; log10 conc −4.9) of the same substance?
Its value is 34%.

And the “Percent Growth” value ([9]; log10 conc −5.9)?
The value was 97%.

What about the “Percent Growth” value ([9]; log10 conc −6.9) of the same substance?
Its value is 93%.

What about the “Percent Growth” value ([9]; log10 conc −7.9) of the same substance?
Its value is 103%.

What about the “Percent Growth” value ([9]; log10 conc −8.9) of the same substance?
Its value is 105%.

What about the TGI [10] of the same substance?
The TGI was greater than 0.0126 ng/mL.

And the “Percent Growth” value ([10]; log10 conc −4.9)?
The value was 18%.

And the “Percent Growth” value ([10]; log10 conc −5.9)?
Its value is 102%.

What about the “Percent Growth” value ([10]; log10 conc −6.9) of the same substance?
Its value is 105%.

What about the “Percent Growth” value ([10]; log10 conc −7.9) of the same substance?
Its value is 118%.

What about the “Percent Growth” value ([10]; log10 conc −8.9) of the same substance?
Its value is 111%.
